Results on three molecules are retold here after patent publication US10617664B2, “Brain derived PPARα ligands” (Rush University Medical Center, priority 2015, dated 2020).

The target in one test is T1, PPARα (Mus musculus, UniProt P23204).
T1 construct: GFP; made in house; host or cells: not clearly stated (lentivirus packaged in HEK293FT cells)
T1 sequence (P23204 1-468): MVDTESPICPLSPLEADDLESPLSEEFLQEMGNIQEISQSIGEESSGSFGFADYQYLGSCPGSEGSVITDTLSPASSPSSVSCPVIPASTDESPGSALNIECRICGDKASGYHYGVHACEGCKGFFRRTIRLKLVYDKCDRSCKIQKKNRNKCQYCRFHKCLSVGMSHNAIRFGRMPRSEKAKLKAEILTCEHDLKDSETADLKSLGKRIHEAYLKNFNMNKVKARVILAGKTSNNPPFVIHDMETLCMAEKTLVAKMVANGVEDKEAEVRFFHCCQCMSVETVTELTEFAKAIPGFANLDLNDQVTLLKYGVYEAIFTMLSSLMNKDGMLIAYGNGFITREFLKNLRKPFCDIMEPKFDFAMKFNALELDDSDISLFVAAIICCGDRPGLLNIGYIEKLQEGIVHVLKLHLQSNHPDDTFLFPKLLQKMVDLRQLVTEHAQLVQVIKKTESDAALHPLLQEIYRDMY
Briefly: Thermal shift assay, full length PPARα with ligands. In kind it is binding. Particulars: full length protein with ligand; protein only x=45.96321. How it is done:
Lentivirus-mediated de novo expression studies were performed, where wild type full-length (GFP-FLPpara) was overexpressed and three different LBD-mutated PPARα (GFP-Y314D, GFP-Y464D and GFP-Y314D/Y464D Ppara) recombinant proteins (FIG. 9D) were expressed in neurons followed by binding analyses with three endogenous ligands. Briefly, site directed mutagenesis was performed in the mouse PPARα with Y314 and Y464 residues replaced separately or together with aspartate (D). After that, the entire mouse GFP-Ppara gene (GFP-FLPpara) and three different mutated genes were cloned in the pLenti6/V5-TOPO lentiviral expression vector (FIG. 3D), packaged in lentivirus particle with HEK293FT cells, purified full length and mutated PPARα proteins in a GFP-affinity column, and finally thermal shift assays were performed in order to analyze their conformational stability. […] After 48 h of transduction, the cells were homogenized, passed through GFP-affinity column, eluted, fractionated with chloroform-methanol, and finally analyzed by GC-MS for the detection of ligands. […] On the other hand, mutation of the Y464 completely knocked down the ligand binding affinity as we observed profound loss of ligand binding in both lenti-GFP-Y464D-Ppara (FIG. 3K, FIG. 9K) and lenti-GFP-Y314D/Y464D-Ppara (FIG. 3L, FIG. 9L)-transduced Ppara-null neurons. Throughout these analyses, we used 2,4-bis (α, α-dimethyl benzyl) phenol as an internal standard (Supplementary FIG. 5A-F). We normalized peak area of different ligands with that of internal standard and then quantified the binding affinity of these ligands with different construct of PPARα by peak integration statistics (Table 1).
Thermal shift assays were performed in Applied Biosystems 7500 standard real-time thermal cycler machine with commercially available thermal shift dye kit (Life technologies; Cat #4461146). For each reaction, purified protein (0.5 μg to 1 μg) was added to 18 μL of thermal shift buffer provided with the kit, and 1-2 μL of dye. […]

Test [1] relates to Ppara-null hippocampal neurons. Description: Dendritic spine density (phalloidin) in transduced Ppara-null hippocampal neurons. It is filed as cell-based, mouse. Particulars: lenti-FL-Ppara. How it is done: Ppara-null hippocampal neurons were transduced with lentivirions containing GFP (vector), FL-Ppara, and Y464D-Ppara for 48 h followed by treatment with vehicle (DMSO) (FIG. 11A), OCT (FIG. 11B), HEX (FIG. 11C), HMB (FIG. 11D), and WY14643 (FIG. 11E) for 24 h. Then neurons were stained for phalloidin to measure spine density. FIG. 11F) A representative picture of dendrite with spines (Cyan color) used for counting area of spine heads. Area of spine heads (FIG. 11G) and number of spines (FIG. 11H) in 10 μm of dendrites. Results are mean±SEM of 5 neurons per group. ^ap<0.05 vs vector only; ^bp<0.05 vs FL-Ppara. AMPA-driven calcium influx was measured in OCT (red), HEX (green) and HMB (purple)-treated Ppara-null hippocampal neurons transduced with lentivirions containing FL-Ppara (FIG. 11I), Y314D-Ppara (FIG. 11J), Y464D-Ppara (FIG. 11K), and Y314D/Y464D-Ppara (FIG. 11L). All neurons were treated with 50 μM of NMDA receptor antagonist N20C to inhibit passive calcium flow through NMDA receptor. (FIG. 11M-P) Similarly NMDA-driven calcium influx was measured in the lentivius-infected Ppara-null hippocampal neurons in the presence of different endogenous ligands. In these cases, Naspm-HCl was treated to stop the passive flow of calcium currents through AMPA receptor. Results are mean of three independent experiments.
Dendritic spines are the crucial mediators of synaptic transmission among central neurons and often serve as a primary candidate for the long term morphological substrates of neuronal plasticity^12,13. Therefore, the effect of these ligands on the increase of spine density in cultured hippocampal neurons was studied. Briefly, mouse Ppara-null hippocampal neurons were transduced with lentivirus containing empty vector, FL-Ppara, or Y464D-Ppara for a week followed by the treatment with OCT, HEX, and HMB for four more days. After that, neurons were labelled with phalloidin to monitor the spine density. […] This observation was further validated by measuring the area of spine heads (FIG. 11F-G) and number of spines (FIG. 11H) in HEX, OCT, and HMB-treated Ppara-null neurons. HEX (FIG. 17G-H), OCT (FIG. 17I-J) and HMB (FIG. 17K-L) stimulated the expression of CREB in Ppara-null hippocampal neurons that were transduced with lentivirons containing the FL-Ppara gene.
Hippocampal regions were dissected from 18-day-old embryonic fetus as described elsewhere (PMID: 25007337), combined and plated in poly-D-lysine coated plate for another 2-3 weeks for branching. After that, these neurons were transduced with GFP-containing lentivirions for 2 d. Neurons were stained with Dylight-554-conjugated phalloidin (Cat #21834; Thermofisher) as per manufactures protocol and visualized in fluorescence microscope. […]

As for `CCOC(=O)C(C)(C)C(C)O` (stereo not drawn) [HMB], the “x at y=50 of thermal shift curve (melting temperature)” value on PPARα stood at 58.49. Further, the density of spines entry in test [1] is “stimulated”.
Taken in the same sequence, the figures for `CCCCCCCCC=CCCCCCCCC(N)=O` [OCT, 9-octadecenamide] were 59.6128 and “stimulated”.
As to `CCCCCCCCCCCCCCCC(N)=O` [HEX, hexadecanamide], at PPARα, the “x at y=50 of thermal shift curve (melting temperature)” value is on record as 59.2835. The density of spines result in test [1] is given as “stimulated”.
